According to the supplement of paper PMC11451515:

Experiments:
Conditions in all cases: 48 h
SEM cells [1] = test: AUC of viability dose-response curve (% viability x log10 dose units); higher = less sensitive
Summary of the method: (§1)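 In 1536-well plates, leukemia cells adapted to each medium (500 or 1000 cells/well) were exposed for 48 h at 37°C to library compounds in DMSO across 11 threefold doses, 47 μM down to 0.79 nM. Viability was read by CellTiter-Glo One luminescence and normalised per plate to DMSO and cell-free wells. A four-parameter log-logistic fit over log10 doses was integrated by trapezoidal rule. This yielded the area under the curve, with over-full-viability curves scaled and quality-control failures dropped.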

NOMO1 [2] = test: as above
Summary of the method: as §1

P12-Ichikawa [3] = test: as above
Summary of the method: as §1

SEM cells [4] = test: cell viability relative to DMSO control; higher = less cytotoxic
Summary of the method: (§2)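 Viability was expressed as a per-plate percentage of DMSO wells, with cell-free wells as background. Leukemia cells (NOMO1 or SEM at 500 cells/well, P12-Ichikawa at 1000 cells/well) were adapted for at least four passages in each medium and seeded in 1536-well plates (5 μl). Library compounds in DMSO were pin-dosed over an 11-point threefold series from 47 μM to 0.79 nM, and CellTiter-Glo One luminescence was read after 48 h at 37°C.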

NOMO1 [5] = test: as above
Summary of the method: as §2

P12-Ichikawa [6] = test: as above
Summary of the method: as §2

NC(=O)N/N=C/c1ccc([N+](=O)[O-])o1
AUC of viability dose-response curve
Conditions	NOMO1 [2]	P12-Ichikawa [3]	SEM cells [1]
HPLM + 10% dialyzed FBS	455	470	472
RPMI 5 mM glucose + 10% FBS	441	435	453
RPMI 5 mM glucose + 10% dialyzed FBS	434	470	467

cell viability [%], SEM cells [4]
Conditions	HPLM + 10% dialyzed FBS	RPMI 5 mM glucose + 10% FBS
0.000781 µM	104	121
0.00234 µM	120	133
0.00702 µM	101	123
0.0211 µM	124	129
0.0632 µM	125	137
0.19 µM	122	142
0.569 µM	109	116
1.71 µM	122	140
5.12 µM	112	139
15.4 µM	126	161
46.1 µM	109	120

Cc1cc(NC(=O)Nc2ccc(N(C)C)cc2)c2cc(F)cc(F)c2n1
AUC of viability dose-response curve
Conditions	NOMO1 [2]	P12-Ichikawa [3]	SEM cells [1]
HPLM + 10% dialyzed FBS	457	475	465
RPMI 5 mM glucose + 10% FBS	466	461	468
RPMI 5 mM glucose + 10% dialyzed FBS	440	454	448

CCCCc1ccc2[nH]c(NC(=O)OC)nc2c1
AUC of viability dose-response curve
Conditions	HPLM + 10% dialyzed FBS	RPMI 5 mM glucose + 10% FBS	RPMI 5 mM glucose + 10% dialyzed FBS
NOMO1 [2]	304	273	293
P12-Ichikawa [3]	252	261	289

cell viability [%]
Conditions	NOMO1 [5]	P12-Ichikawa [6]	SEM cells [4]
HPLM + 10% dialyzed FBS, 0.000781 µM	108	104	75.4
HPLM + 10% dialyzed FBS, 0.00234 µM	103	106	92.3
HPLM + 10% dialyzed FBS, 0.00702 µM	106	105	98.4
HPLM + 10% dialyzed FBS, 0.0211 µM	111	101	79.4
HPLM + 10% dialyzed FBS, 0.0632 µM	95.3	85.9	72.3
HPLM + 10% dialyzed FBS, 0.19 µM	37.6	22.9	26.6
HPLM + 10% dialyzed FBS, 0.569 µM	31.9	18.4	25.9
HPLM + 10% dialyzed FBS, 1.71 µM	33.3	27.1	23.8
HPLM + 10% dialyzed FBS, 5.12 µM	42.8	13.8	26.2
HPLM + 10% dialyzed FBS, 15.4 µM	37.3	16.2	23
HPLM + 10% dialyzed FBS, 46.1 µM	47.7	11	16.1
RPMI 5 mM glucose + 10% FBS, 0.000781 µM	102	99.7	80
RPMI 5 mM glucose + 10% FBS, 0.00234 µM	109	112	81.5
RPMI 5 mM glucose + 10% FBS, 0.00702 µM	120	101	87.2
RPMI 5 mM glucose + 10% FBS, 0.0211 µM	110	106	75.5
RPMI 5 mM glucose + 10% FBS, 0.0632 µM	99.8	92.6	52.4
RPMI 5 mM glucose + 10% FBS, 0.19 µM	34.2	17.6	16.4
RPMI 5 mM glucose + 10% FBS, 0.569 µM	26.1	16.8	15.6
RPMI 5 mM glucose + 10% FBS, 1.71 µM	24.4	26.7	14.5
RPMI 5 mM glucose + 10% FBS, 5.12 µM	25.8	24.1	18
RPMI 5 mM glucose + 10% FBS, 15.4 µM	23.8	22.2	13.1
RPMI 5 mM glucose + 10% FBS, 46.1 µM	24.2	16.5	10.8
RPMI 5 mM glucose + 10% dialyzed FBS, 0.000781 µM	94.2	92.4	98.8
RPMI 5 mM glucose + 10% dialyzed FBS, 0.00234 µM	96.6	98.4	95.8
RPMI 5 mM glucose + 10% dialyzed FBS, 0.00702 µM	101	103	102
RPMI 5 mM glucose + 10% dialyzed FBS, 0.0211 µM	95.3	102	77.2
RPMI 5 mM glucose + 10% dialyzed FBS, 0.0632 µM	101	97.5	56.9
RPMI 5 mM glucose + 10% dialyzed FBS, 0.19 µM	37.1	31	23.5
RPMI 5 mM glucose + 10% dialyzed FBS, 0.569 µM	29.1	25.7	18.2
RPMI 5 mM glucose + 10% dialyzed FBS, 1.71 µM	27.4	37.7	20.8
RPMI 5 mM glucose + 10% dialyzed FBS, 5.12 µM	31.6	27.9	23.6
RPMI 5 mM glucose + 10% dialyzed FBS, 15.4 µM	34.1	29.3	19.4
RPMI 5 mM glucose + 10% dialyzed FBS, 46.1 µM	31.8	23.1	12.4

CN1CC[C@H]([C@@H](O)C1)C2=C(O)C=C(O)C3=C2O\C(=C/C3=O)C4=CC=CC=C4Cl
AUC of viability dose-response curve
Conditions	NOMO1 [2]	P12-Ichikawa [3]	SEM cells [1]
HPLM + 10% dialyzed FBS	265	306	281
RPMI 5 mM glucose + 10% FBS	288	301	276
RPMI 5 mM glucose + 10% dialyzed FBS	285	300	282

SEM cells [4], HPLM + 10% dialyzed FBS
Conditions	cell viability [%]
0.000781 µM	104
0.00234 µM	121
0.00702 µM	134
0.0211 µM	132
0.0632 µM	128
0.19 µM	131
0.569 µM	23
1.71 µM	10.1
5.12 µM	6.69
15.4 µM	5.22
46.1 µM	6.07

CN1CCc2c(n(Cc3ccc(C(=O)NO)cc3)c3ccccc23)C1
AUC of viability dose-response curve
Conditions	NOMO1 [2]	P12-Ichikawa [3]	SEM cells [1]
HPLM + 10% dialyzed FBS	452	448	443
RPMI 5 mM glucose + 10% FBS	440	453	442
RPMI 5 mM glucose + 10% dialyzed FBS	449	451	452

CCn1c(=O)c2c(nc(/C=C/c3ccc(OC)c(OC)c3)n2C)n(CC)c1=O
AUC of viability dose-response curve
Conditions	NOMO1 [2]	P12-Ichikawa [3]	SEM cells [1]
HPLM + 10% dialyzed FBS	425	467	470
RPMI 5 mM glucose + 10% FBS	424	451	463
RPMI 5 mM glucose + 10% dialyzed FBS	436	464	472

OC1=CC2=C(C(=C1)O)C(=O)\C(=C(/O2)C3=CC(=C(O)C(=C3)O)O)O
AUC of viability dose-response curve
Conditions	NOMO1 [2]	P12-Ichikawa [3]	SEM cells [1]
HPLM + 10% dialyzed FBS	451	454	462
RPMI 5 mM glucose + 10% FBS	470	471	460
RPMI 5 mM glucose + 10% dialyzed FBS	458	466	470

N=C(N)NC(=N)NCCc1ccccc1
AUC of viability dose-response curve
Conditions	NOMO1 [2]	P12-Ichikawa [3]	SEM cells [1]
HPLM + 10% dialyzed FBS	464	450	465
RPMI 5 mM glucose + 10% FBS	456	440	461
RPMI 5 mM glucose + 10% dialyzed FBS	455	438	444

O=C(CN1C(=O)C2(CCCC2)NC[C@H]1c1cc(F)cc(F)c1)Nc1ccc2c(c1)C[C@@]1(C2)C(=O)Nc2ncccc21
AUC of viability dose-response curve
Conditions	NOMO1 [2]	P12-Ichikawa [3]	SEM cells [1]
HPLM + 10% dialyzed FBS	445	472	461
RPMI 5 mM glucose + 10% FBS	459	466	463
RPMI 5 mM glucose + 10% dialyzed FBS	467	471	446

cell viability [%], SEM cells [4]
Conditions	HPLM + 10% dialyzed FBS	RPMI 5 mM glucose + 10% FBS
0.000781 µM	109	123
0.00234 µM	104	104
0.00702 µM	119	126
0.0211 µM	139	142
0.0632 µM	125	131
0.19 µM	131	136
0.569 µM	132	145
1.71 µM	140	131
5.12 µM	142	135
15.4 µM	114	129
46.1 µM	104	129

COc1cc(C)c(/C=C/C(C)=C/C=C/C(C)=C/C(=O)O)c(C)c1C
AUC of viability dose-response curve
Conditions	NOMO1 [2]	P12-Ichikawa [3]	SEM cells [1]
HPLM + 10% dialyzed FBS	442	458	450
RPMI 5 mM glucose + 10% FBS	441	441	426
RPMI 5 mM glucose + 10% dialyzed FBS	420	455	450
